From article PMC8878748, “Broad-Spectrum Antiviral Activity of the Amphibian Antimicrobial Peptide Temporin L and Its Analogs” (International Journal of Molecular Sciences, 2022)
Where a SMILES comes first, the peptide text is derived from it. [ ]: non-standard residue; d: D form. The star is where a group is joined. X1 = CC(C)CCC[C@@H](C)[C@H]1CC[C@H]2[C@@H]3CC=C4C[C@@H](OC(=O)CCOCCOCCOCCOCCNC(=O)C*)CC[C@]4(C)[C@H]3CC[C@]12C; Pentadecanoyl = CCCCCCCCCCCCCCC(=O)*; Palmitoyl = CCCCCCCCCCCCCCCC(=O)*; Tridecanoyl = CCCCCCCCCCCCC(=O)*; Nle = CCCC[C@H](N)C(=O)O

How the values were obtained:
[1] = test system: influenza virus (subtype H1N1); conditions: influenza virus (subtype, 2 h)
[2] = Table 2; cited from earlier work
[3] = MTT cytotoxicity assay on Vero cells; assay type: cell-based; conditions: MTT; for CC50: calculated after 2 h of peptide treatment; for viability: 2 h, concentrations below 25 μM, read-out: viable cells
MeV = conditions: 2 h

In the case of CC[C@H](C)[C@H](NC(=O)[C@H](CCCNC(=N)N)NC(=O)[C@@H]1CCCN1C(=O)[C@@H](CC(C)C)NC(=O)[C@H](Cc1ccccc1)NC(=O)[C@H](CCCCN)NC(=O)[C@H](CO)NC(=O)[C@H](Cc1ccccc1)NC(=O)[C@H](Cc1c[nH]c2ccccc12)NC(=O)[C@@H]1CCCN1C(=O)[C@@H](NC(=O)[C@@H](N)Cc1ccccc1)C(C)C)C(=O)N[C@@H](CC(C)C)C(N)=O [TL2, H-Phe-Val-Pro-Trp-Phe-Ser-Lys-Phe-DLeu-Pro-Arg-Ile-Leu-NH2] (H-FVPWFSKF[dL]PRIL-NH2), the IC50 [1] is listed as 12 µM, the IC90 [1] is listed as 21.3 µM and the “%Helix in DPC” value [2] is listed as 15%. For the same compound, the CC50 [3] was 56.5 µM, the IC50 (MeV) was > 50 µM and the IC90 (MeV) was > 50 µM.
For CC[C@H](C)[C@H](NC(=O)[C@H](CCCNC(=N)N)NC(=O)[C@H]1CCCN1C(=O)[C@@H](CC(C)C)NC(=O)[C@H](Cc1ccccc1)NC(=O)[C@H](CCCCN)NC(=O)[C@H](CO)NC(=O)[C@H](Cc1ccccc1)NC(=O)[C@H](Cc1c[nH]c2ccccc12)NC(=O)[C@@H]1CCCN1C(=O)[C@@H](NC(=O)[C@@H](N)Cc1ccccc1)C(C)C)C(=O)N[C@@H](CC(C)C)C(N)=O [TL3, H-Phe-Val-Pro-Trp-Phe-Ser-Lys-Phe-DLeu-DPro-Arg-Ile-Leu-NH2] (H-FVPWFSKF[dL][dP]RIL-NH2), the IC50 [1] is listed as > 50 µM, the IC90 [1] is listed as > 50 µM and the “%Helix in DPC” value [2] is listed as 8%. For the same compound, the CC50 [3] was > 100 µM, the IC50 (MeV) was > 50 µM and the IC90 (MeV) was > 50 µM.
For CCCC[C@H](NC(=O)[C@@H](CC(C)C)NC(=O)[C@H](Cc1ccccc1)NC(=O)[C@H](CCCCN)NC(=O)[C@H](CO)NC(=O)[C@H](Cc1ccccc1)NC(=O)[C@H](Cc1c[nH]c2ccccc12)NC(=O)[C@@H]1CCCN1C(=O)[C@@H](NC(=O)[C@@H](N)Cc1ccccc1)C(C)C)C(=O)N[C@@H](CCCNC(=N)N)C(=O)N[C@H](C(=O)N[C@@H](CC(C)C)C(=O)N[C@@H](CSCC(=O)NCCOCCOCCOCCOCCC(=O)O[C@H]1CC[C@@]2(C)C(=CC[C@H]3[C@@H]4CC[C@H]([C@H](C)CCCC(C)C)[C@@]4(C)CC[C@@H]32)C1)C(N)=O)[C@@H](C)CC [TL6.1, H-Phe-Val-Pro-Trp-Phe-Ser-Lys-Phe-DLeu-Nle-Arg-Ile-Leu-Cys-[PEG4-Cholesterol]-NH2] (H-FVPWFSKF[dL][Nle]RILC(X1)-NH2), the IC50 [1] was 5.55 µM, the IC90 [1] was 10 µM and the CC50 [3] was > 100 µM. The IC50 (MeV) was 39.1 µM and the IC90 (MeV) was > 50 µM.
For CCCCCCCCCCCCC(=O)N[C@@H](Cc1ccccc1)C(=O)N[C@H](C(=O)N1CCC[C@H]1C(=O)N[C@@H](Cc1c[nH]c2ccccc12)C(=O)N[C@@H](Cc1ccccc1)C(=O)N[C@@H](CO)C(=O)N[C@@H](CCCCN)C(=O)N[C@@H](Cc1ccccc1)C(=O)N[C@H](CC(C)C)C(=O)N[C@@H](CCCC)C(=O)N[C@@H](CCCNC(=N)N)C(=O)N[C@H](C(=O)N[C@@H](CC(C)C)C(N)=O)[C@@H](C)CC)C(C)C [TL6.6, H-Tridecanoic acid-Phe-Val-Pro-Trp-Phe-Ser-Lys-Phe-DLeu-Nle-Arg-Ile-Leu-NH2] (Tridecanoyl-FVPWFSKF[dL][Nle]RIL-NH2), the IC50 [1] was 3.39 µM, the IC90 [1] was 6.66 µM and the CC50 [3] was > 100 µM. The IC50 (MeV) was 33.4 µM and the IC90 (MeV) was > 50 µM.
With CCCCCCCCCCCCCCC(=O)N[C@@H](Cc1ccccc1)C(=O)N[C@H](C(=O)N1CCC[C@H]1C(=O)N[C@@H](Cc1c[nH]c2ccccc12)C(=O)N[C@@H](Cc1ccccc1)C(=O)N[C@@H](CO)C(=O)N[C@@H](CCCCN)C(=O)N[C@@H](Cc1ccccc1)C(=O)N[C@H](CC(C)C)C(=O)N[C@@H](CCCC)C(=O)N[C@@H](CCCNC(=N)N)C(=O)N[C@H](C(=O)N[C@@H](CC(C)C)C(N)=O)[C@@H](C)CC)C(C)C [TL6.7, H-Pentadecanoic acid-Phe-Val-Pro-Trp-Phe-Ser-Lys-Phe-DLeu-Nle-Arg-Ile-Leu-NH2] (Pentadecanoyl-FVPWFSKF[dL][Nle]RIL-NH2) the IC50 [1] was 3.48 µM, the IC90 [1] was 8.1 µM and the CC50 [3] was > 100 µM. The IC50 (MeV) was 37.8 µM and the IC90 (MeV) was > 50 µM.
For CCCCCCCCCCCCCCCC(=O)N[C@@H](Cc1ccccc1)C(=O)N[C@H](C(=O)N1CCC[C@H]1C(=O)N[C@@H](Cc1c[nH]c2ccccc12)C(=O)N[C@@H](Cc1ccccc1)C(=O)N[C@@H](CO)C(=O)N[C@@H](CCCCN)C(=O)N[C@@H](Cc1ccccc1)C(=O)N[C@H](CC(C)C)C(=O)N[C@@H](CCCC)C(=O)N[C@@H](CCCNC(=N)N)C(=O)N[C@H](C(=O)N[C@@H](CC(C)C)C(N)=O)[C@@H](C)CC)C(C)C [TL6.8, H-Palmitic acid-Phe-Val-Pro-Trp-Phe-Ser-Lys-Phe-DLeu-Nle-Arg-Ile-Leu-NH2] (Palmitoyl-FVPWFSKF[dL][Nle]RIL-NH2), the IC50 [1] was 4.77 µM, the IC90 [1] was 7.11 µM and the CC50 [3] was > 100 µM. The IC50 (MeV) was 39.4 µM and the IC90 (MeV) was > 50 µM.
In the case of CC[C@H](C)[C@H](NC(=O)[C@H](CCCNC(=N)N)NC(=O)[C@H](CCCCN)NC(=O)[C@@H](CC(C)C)NC(=O)[C@H](Cc1ccccc1)NC(=O)[C@H](CCCCN)NC(=O)[C@H](CO)NC(=O)[C@H](Cc1ccccc1)NC(=O)[C@H](Cc1c[nH]c2ccccc12)NC(=O)[C@@H]1CCCN1C(=O)[C@@H](NC(=O)[C@@H](N)Cc1ccccc1)C(C)C)C(=O)N[C@@H](CC(C)C)C(N)=O [TL8, H-Phe-Val-Pro-Trp-Phe-Ser-Lys-Phe-DLeu-Lys-Arg-Ile-Leu-NH2] (H-FVPWFSKF[dL]KRIL-NH2), the IC50 [1] is given as 3.4 µM, the IC90 [1] is given as 9.78 µM and the “%Helix in DPC” value [2] is given as 61%. For the same compound, the CC50 [3] was 22.3 µM, the IC50 (MeV) was 37.1 µM and the IC90 (MeV) was > 50 µM.
In the case of CC[C@H](C)[C@H](NC(=O)[C@H](CCCNC(=N)N)NC(=O)[C@@H](CCCCN)NC(=O)[C@@H](CC(C)C)NC(=O)[C@H](Cc1ccccc1)NC(=O)[C@H](CCCCN)NC(=O)[C@H](CO)NC(=O)[C@H](Cc1ccccc1)NC(=O)[C@H](Cc1c[nH]c2ccccc12)NC(=O)[C@@H]1CCCN1C(=O)[C@@H](NC(=O)[C@@H](N)Cc1ccccc1)C(C)C)C(=O)N[C@@H](CC(C)C)C(N)=O [TL9, H-Phe-Val-Pro-Trp-Phe-Ser-Lys-Phe-DLeu-DLys-Arg-Ile-Leu-NH2] (H-FVPWFSKF[dL][dK]RIL-NH2), the IC50 [1] is listed as 3.44 µM, the IC90 [1] is listed as 11.2 µM and the “%Helix in DPC” value [2] is listed as 30%. For the same compound, the viability [3] was > 65%, the CC50 [3] was 45.9 µM and the IC50 (MeV) was 45 µM. For the same compound, the IC90 (MeV) was > 50 µM.
For CC[C@H](C)[C@H](NC(=O)[C@H](CCCNC(=N)N)NC(=O)[C@H](Cc1c[nH]c2ccccc12)NC(=O)[C@@H](CC(C)C)NC(=O)[C@H](Cc1ccccc1)NC(=O)[C@H](CCCCN)NC(=O)[C@H](CO)NC(=O)[C@H](Cc1ccccc1)NC(=O)[C@H](Cc1c[nH]c2ccccc12)NC(=O)[C@@H]1CCCN1C(=O)[C@@H](NC(=O)[C@@H](N)Cc1ccccc1)C(C)C)C(=O)N[C@@H](CC(C)C)C(N)=O [TL10, H-Phe-Val-Pro-Trp-Phe-Ser-Lys-Phe-DLeu-Trp-Arg-Ile-Leu-NH2] (H-FVPWFSKF[dL]WRIL-NH2), the IC50 [1] is given as 3.79 µM, the IC90 [1] is given as 12.1 µM and the “%Helix in DPC” value [2] is given as 50%. For the same compound, the viability [3] was > 65%, the CC50 [3] was 35.5 µM and the IC50 (MeV) was 42.8 µM. For the same compound, the IC90 (MeV) was > 50 µM.
